Data set [1] is described as follows: NOVARTIS: Cytotoxicity against human hepatocellular carcinoma cell line (Huh7). The format is toxicity, cell-based, Huh-7. Conditions: Huh7 cells (hepatocellular carcinoma cell line).
The test system of data set [2] is Plasmodium falciparum. Description: NOVARTIS: Inhibition of Plasmodium falciparum W2 (drug-resistant) proliferation in erythrocyte-based infection assay. It counts as functional, organism-based. Conditions: Plasmodium falciparum, W2; read-out: EC50.
Data set [3] has as its system Plasmodium falciparum. Description: NOVARTIS: Inhibition of Plasmodium falciparum 3D7 (drug-susceptible) proliferation in erythrocyte-based infection assay. The format is functional, organism-based. Conditions: Plasmodium falciparum, 3D7.

Broadly, the CC50 is the concentration at which the toxic effect on the cells reaches its halfway point. As a reminder, the EC50 is the concentration that produces a half-maximal response. Regarding `N=c1n(Cc2ccccc2)c2ccccc2n1CC(O)c1ccc(Cl)cc1` (centres undefined), the CC50 in data set [1] amounted to 11100 nM. Moreover, the EC50 came out at 50.6 nM in the data set on Plasmodium falciparum [2] and 257 nM in the data set with Plasmodium falciparum [3].
The matching figures for `CC(=NNC(N)=S)C(C)=NNC(N)=S`: greater than 100000 nM, 462 nM and 572 nM.
The matching figures for `CCc1nc2nc(C)cc(NCCc3cccc(C)c3)n2n1`: greater than 100000 nM, 453 nM and 334 nM.
The like results for `COc1ccc(-c2c(C(F)(F)F)nn(C)c2NC(=O)Nc2ccc(F)cc2F)cc1` were, in that order, 78200 nM, 356 nM and 242 nM.
`CN(C)CCCn1c(N)c(-c2nc3ccccc3[nH]2)c2nc(C#N)c(C#N)nc21` yielded a CC50 in data set [1] of 60200 nM. The figures for the EC50 in the data set with Plasmodium falciparum [2] and in the data set with Plasmodium falciparum [3] were 274 nM and 463 nM, respectively.
With `COc1ccc(C2CC(=O)C3=C(C2)NC(C)=C(C(=O)OC(C)C)C3c2ccccc2F)cc1OC` (centres undefined), the CC50 in data set [1] came to 7320 nM. Moreover, the EC50 in the data set with Plasmodium falciparum [2] worked out at 33.2 nM; in the data set with Plasmodium falciparum [3], 34.7 nM.
The like results for `CC(C)CCNCC(O)Cn1c2ccc(Cl)cc2c2cc(Cl)ccc21` (centres undefined) were, in that order, 20600 nM, 96.6 nM and 192 nM.
The matching figures for `CCOc1ccc(-c2nonc2NC(=O)c2ccco2)cc1OCC`: greater than 100000 nM, 481 nM and 590 nM.
In turn, `Cn1nc(C(F)(F)F)c(-c2ccc(Br)cc2)c1NC(=O)Nc1ccc(F)cc1F` gave a CC50 in data set [1] of 42800 nM. Further, the EC50 with Plasmodium falciparum [2] turned out to be 206 nM; in the data set with Plasmodium falciparum [3], 212 nM.
The matching figures for `N=c1ccn(CC(=O)N2CCCc3ccccc32)c2ccccc12`: greater than 100000 nM, 453 nM and 1490 nM.
The like results for `NNC(=O)CNC(c1ccccc1)c1cc(Br)ccc1NC(=O)c1ccccc1Br` (centres undefined) were, in that order, greater than 100000 nM, 453 nM and 342 nM.
The matching figures for `CC(C)NC(=O)c1ccc(OC2CCN(CC3CCCCC3)CC2)c(Cl)c1`: 65900 nM, 298 nM and 476 nM.
Consider `O=C(NCCCCCCCCNC(=O)Nc1ccc(C2=NCCN2)cc1)Nc1ccc(C2=NCCN2)cc1`, for which the CC50 in data set [1] is greater than 10000 nM. The EC50 is 45.9 nM in the data set with Plasmodium falciparum [2] and 85.4 nM with Plasmodium falciparum [3].
The matching figures for `COc1cc(OC)cc(C(=O)NCc2n[nH]c(=S)n2-c2cccc(Cl)c2)c1`: greater than 100000 nM, 450 nM and 565 nM.
The like results for `CCOC(=O)c1nnn(-c2nonc2N)c1-c1ccc(OC)c(OC)c1` were, in that order, greater than 100000 nM, 450 nM and 513 nM.
Take `Cc1nnc(SCC(=O)NCc2ccco2)n1-c1ccc(F)cc1`: the CC50 in data set [1] was greater than 100000 nM. Also, the EC50 in the data set on Plasmodium falciparum [2] is 459 nM; in the data set on Plasmodium falciparum [3] it was greater than 8950 nM.
The like results for `Oc1ccc(-c2cnccn2)cc1CNC1CCN(Cc2ccccc2)CC1` were, in that order, 82800 nM, 380 nM and 385 nM.
Compound `COc1ccc(-c2nc(-c3ccncc3)cnc2N)cc1OC` returned a CC50 in data set [1] greater than 10000 nM. Besides, the EC50 came out at 45.7 nM in the data set on Plasmodium falciparum [2] and 35.8 nM with Plasmodium falciparum [3].
Take `CCCCCC(=O)Oc1ccccc1-c1nc2cc(C)ccn2c1NC(C)(C)CC(C)(C)C`: the CC50 in data set [1] is greater than 10000 nM. The EC50 came out at 44.8 nM in the data set with Plasmodium falciparum [2] and 703 nM in the data set on Plasmodium falciparum [3].
The like results for `CCC1CCCCN1S(=O)(=O)c1cc(Br)cc2c1N(C(=O)C1CC1)CC2` (centres undefined) were, in that order, greater than 100000 nM, 448 nM and 2840 nM.
The compound `c1ccc2c(NCCc3c[nH]c4ccccc34)c3ccccc3nc2c1` showed a CC50 in data set [1] of 7080 nM. Further, the values for the EC50 in the data set on Plasmodium falciparum [2] and with Plasmodium falciparum [3] were 31.6 nM and 86 nM, respectively.
As to `O=C(NCc1cccs1)c1ccc(OC2CCN(CC3CCCCC3)CC2)c(Cl)c1`, the CC50 in data set [1] is greater than 10000 nM. The EC50 in the data set with Plasmodium falciparum [2] is 44.6 nM; with Plasmodium falciparum [3], 719 nM.
The matching figures for `O=C(Nc1ccc(C23CC4CC(CC(c5ccccc5)(C4)C2)C3)cc1)c1cccs1`: greater than 100000 nM, 468 nM and 645 nM.
The matching figures for `COc1cc(NC(C)CCCN(Cc2ccccc2OC)C(=O)c2ccc(Cl)c([N+](=O)[O-])c2)c2ncccc2c1` (centres undefined): greater than 3910 nM, less than 18.2 nM and 1200 nM.
The matching figures for `O=C(Nc1nc2ccccc2s1)c1ccc(S(=O)(=O)N2CCOCC2)cc1`: greater than 10000 nM, greater than 46.1 nM and greater than 1250 nM.
The compound `CC(=O)N(C1=C(N2CCCCC2)C(=O)c2ccccc2C1=O)c1cccc(F)c1` displayed a CC50 in data set [1] of 23700 nM. Further, the values for the EC50 with Plasmodium falciparum [2] and with Plasmodium falciparum [3] were 109 nM and 146 nM, respectively.
`Cc1ccc(-c2nn(-c3ccccc3)c3[nH]c(=O)c(CNCc4ccccc4)cc23)cc1` showed a CC50 in data set [1] greater than 100000 nM. The EC50 with Plasmodium falciparum [2] was 467 nM; with Plasmodium falciparum [3] it was 1610 nM.
The like results for `CC(C)CCNCC(O)Cn1c2ccc(Br)cc2c2cc(Br)ccc21` (centres undefined) were, in that order, 19000 nM, 88.5 nM and 270 nM.
The compound `N=c1n(Cc2ccccc2)c2ccccc2n1CC(O)c1ccc(Br)cc1` (centres undefined) showed a CC50 in data set [1] of 21800 nM. In addition, the EC50 with Plasmodium falciparum [2] was 101 nM; in the data set with Plasmodium falciparum [3] it was 254 nM.
The like results for `CCN1CC=C2C(C#N)=C(N)C(C#N)(C#N)[C@H](c3ccc(C)s3)[C@H]2C1` were, in that order, greater than 100000 nM, 464 nM and 1680 nM.
In data set [1], `CCOC(=O)C1CCN(C(=O)c2c(C)oc3c2C(=O)c2ccccc2C3=O)CC1` gave a CC50 of 22200 nM. In addition, the figures for the EC50 with Plasmodium falciparum [2] and in the data set with Plasmodium falciparum [3] were 103 nM and 201 nM, respectively.
In data set [1], `S=P(OCC1C(COP(=S)(c2ccccc2)c2ccccc2)C1(Cl)Cl)(c1ccccc1)c1ccccc1` (centres undefined) showed a CC50 greater than 100000 nM. Besides, the EC50 came out at 484 nM in the data set on Plasmodium falciparum [2] and 385 nM in the data set with Plasmodium falciparum [3].
The like results for `C=CC1CN2CCC1CC2C(OC(=O)C1CC1)c1ccnc2ccccc12` (centres undefined) were, in that order, 42200 nM, 199 nM and 84.7 nM.
The like results for `O=C1C(Nc2ccc(Cl)cc2)=C(N2CCCCC2)C(=O)c2ccccc21` were, in that order, 53200 nM, 250 nM and 319 nM.
Regarding `COc1ccc(C(Cc2ccccc2)NC2CN3CCC2CC3)cc1` (centres undefined), the CC50 in data set [1] was greater than 65000 nM. Also, the EC50 is 308 nM in the data set with Plasmodium falciparum [2] and 4260 nM in the data set with Plasmodium falciparum [3].
The like results for `CCOc1ccc(NC(=O)CSc2nncc(O)n2)cc1` were, in that order, greater than 100000 nM, 473 nM and 859 nM.
Compound `Cc1ccc(C(=O)NC2CCN(S(=O)(=O)c3c(C)cc(C)cc3C)CC2)cc1` displayed a CC50 in data set [1] greater than 100000 nM. For the same compound, the figures for the EC50 with Plasmodium falciparum [2] and in the data set on Plasmodium falciparum [3] were 472 nM and 1440 nM, respectively.
`CC(=O)N(C1=C(N2CCCC2)C(=O)c2ccccc2C1=O)c1ccc(I)cc1` yielded a CC50 in data set [1] of 47000 nM. Moreover, the values for the EC50 in the data set with Plasmodium falciparum [2] and in the data set with Plasmodium falciparum [3] were 224 nM and 553 nM, respectively.
The compound `Cc1ccn2c(NC(C)(C)CC(C)(C)C)c(-c3ccccc3OC(=O)c3ccc(C)c([N+](=O)[O-])c3)nc2c1` displayed a CC50 in data set [1] greater than 10000 nM. Further, the EC50 was 47.7 nM in the data set with Plasmodium falciparum [2] and 744 nM in the data set with Plasmodium falciparum [3].
The matching figures for `O=C(ON=C(c1ccncc1)c1ccc(Cl)cc1)c1ccccc1`: greater than 10000 nM, greater than 48 nM and 1240 nM.
The like results for `CC(=O)N(C1=C(N2CCN(C)CC2)C(=O)c2ccccc2C1=O)c1cc(C)cc(C)c1` were, in that order, 12600 nM, 61.2 nM and 67 nM.
The like results for `COc1ccc(OC)c(C2CC(=O)N3CN(Cc4ccccc4)CSC3=C2C#N)c1` (centres undefined) were, in that order, greater than 100000 nM, 482 nM and 638 nM.
In turn, `Clc1ccc2c(c1)c1cc(Cl)ccc1n2CC1CO1` (centres undefined) came in with a CC50 in data set [1] of 57400 nM. Besides, the EC50 was 277 nM in the data set on Plasmodium falciparum [2] and 341 nM with Plasmodium falciparum [3].
The matching figures for `CC(=O)Nc1ccc(NS(=O)(=O)c2cc([N+](=O)[O-])ccc2Cl)cc1`: greater than 100000 nM, 475 nM and greater than 12500 nM.
The matching figures for `O=C1C2C(C(=O)N1c1ccc(F)cc1)C1(c3ccccc3)C(=O)C2(c2ccccc2)C(c2ccccc2)=C1c1ccccc1` (centres undefined): greater than 100000 nM, 474 nM and 563 nM.
The compound `COc1ccc(C2CC(=O)C3=C(C2)NC(C)=C(C(=O)OC2CCCC2)C3c2cccc(Cl)c2)cc1OC` (centres undefined) yielded a CC50 in data set [1] of 16800 nM. In addition, the EC50 with Plasmodium falciparum [2] is 75.8 nM; with Plasmodium falciparum [3], 201 nM.
The like results for `CCCNC(=O)N1CCC2(CC1)CC(=O)c1cc(C)ccc1O2` were, in that order, greater than 100000 nM, 448 nM and 870 nM.
The matching figures for `CCOC(=O)C1=C(CC)NC2=C(C(=O)CCC2)C1c1ccc(OC)c(Br)c1` (centres undefined): greater than 83800 nM, 387 nM and 1070 nM.
As to `CCCCCCCC(O)(c1ccc(OCC)cc1)C(CN1CCCCC1)c1ccccc1` (centres undefined), the CC50 in data set [1] was greater than 100000 nM. The EC50 in the data set on Plasmodium falciparum [2] turned out to be 456 nM; in the data set with Plasmodium falciparum [3], 1180 nM.
For the compound `OC(Cn1cnc(-c2ccccc2)c1-c1ccccc1)Cn1c2ccc(Cl)cc2c2cc(Cl)ccc21` (centres undefined), in data set [1], the CC50 came to 21200 nM. In addition, the results for the EC50 in the data set with Plasmodium falciparum [2] and in the data set on Plasmodium falciparum [3] were 99.7 nM and 589 nM, respectively.
As for `COC(=O)C1=C(C)NC2=C(C(=O)CC(c3ccccc3Cl)C2)C1c1ccc(OC)c(OC)c1` (centres undefined), the CC50 in data set [1] is greater than 100000 nM. Further, the values for the EC50 in the data set with Plasmodium falciparum [2] and with Plasmodium falciparum [3] were 478 nM and 1290 nM, respectively.
The matching figures for `O=C(Nc1ccc(OC(F)(F)F)cc1)c1cnn2c1NC(c1cccs1)CC2C(F)(F)F` (centres undefined): greater than 50000 nM, 241 nM and 492 nM.
`Cc1ccc(O)c(NC(=O)c2cnn3c(C(F)(F)F)cc(-c4ccccc4)nc23)c1`: the CC50 in data set [1] was greater than 100000 nM. Further, the EC50 came out at 472 nM with Plasmodium falciparum [2] and 1820 nM in the data set with Plasmodium falciparum [3].

The values above are taken from ChEMBL document CHEMBL1156829 (Proc Natl Acad Sci U S A, 2008).
